Source: PMC9953224, “Pharmacokinetic Evaluation of New Drugs Using a Multi-Labelling Approach and PET Imaging: Application to a Drug Candidate with Potential Application in Neuromuscular Disorders” (Biomedicines, 2023)
Entries after “also recorded” stand apart in the source; their conditions may differ. Where two headings read alike, the source gives them in different places.

What was measured:
[1] = target: T1, FKBP12/RyR interaction (Homo sapiens, UniProt P62942); test: In situ proximity ligation assay (PLA) in human myotubes under nitro-oxidative stress; format: cell-based; details: human myotubes challenged with peroxynitrite donor SIN1 (5 mM, 30 min)
T1 construct: endogenous in cells; host or cells: immortalized human myoblasts differentiated into myotubes
Method: In situ PLA was used for evaluation of FKBP12/RyR stability in human myotubes under nitro-oxidative stress, as previously described. Briefly, immortalized human myoblasts (Myology Institute, Paris, France) were differentiated into myotubes and nitro-oxidative stress was induced by addition of the peroxynitrite donor 3-morpholinosydnonimine (SIN1, 5 mM, SCBT, Heidelberg, Germany) for 30 min. Myotubes were fixed with 4% paraformaldehyde (Aname, Madrid, Spain) and incubated overnight with the following primary antibodies: anti-RyR mouse mAb (1:200, Thermo Scientific, Waltham, MA, USA), and anti-FKBP12 rabbit pAb (1:100, Novus Biologicals, Centennial, CO, USA). The Duolink in situ PLA Orange assay kit was used with corresponding conjugated secondary antibodies (Sigma). Samples were counterstained with FITC-conjugated Myosin Heavy Chain-CFS mAb (MyHC, 1:50, R&D, Minneapolis, MN, USA) and mounted with ProLong Gold antifade reagent (Life Technologies, Eugene, OR, USA). Image quantification was performed with ImageJ (NIH). For each image, the total number of spots was normalized to the MyHC area. At least 3 images per condition were analysed with an average of 8–9 myotubes per image. Statistical significance was determined using One-Way ANOVA followed by Dunett’s multiple comparisons test. p-values < 0.05 were considered statistically significant.

[2] = target: T2, FKBP12 (Homo sapiens, UniProt P62942); test: Competitive ligand binding assay (FKBP/FRB NanoBiT luminescence protein complementation) in HEK293 cells; format: cell-based
T2 construct: host or cells: HEK293
Method: Briefly, HEK293 (ATCC) cells were transfected with FKBP/FRB NanoBiT Control Pair (Promega, Madison, WI, USA) and kinetic measurements were performed 24 h after transfection with Nano-Glo Live Cell Reagent (Promega), as described by the manufacturer. A total of 30 nM rapamycin (Sigma-Aldrich, Madrid, Spain) and AHK2 (1 μM–10 mM) was sequentially added and each effect was recorded for 10 min. Specific activity was normalized to vehicle, and IC50 was calculated using GraphPad Prism by fitting the data to a four-parameter logistic curve.

[3] = Pharmacokinetics from metabolite-corrected arterial plasma TACs after oral administration; format: in vivo, Sprague Dawley Rats; details: for MRT / half-life: Sprague Dawley, rat, arterial plasma; for MRT: read-out: MRT mean residence time (converted); for half-life: read-out: t1/2 terminal half-life
Method: Anaesthesia was induced with 5% isoflurane (IsoFlo®, Abbott Laboratories, Abbott Park, IL, USA) and maintained by 2% of isoflurane in 100% O2. During the experiment, rats were kept normothermic using a heating blanket (Homeothermic Blanket Control Unit; Bruker). The rat was positioned in supine position on an operating table and the two distal hind limbs were fixed forming an approximately 30° angle with the horizontal plane. The surgical region was scrubbed using Betadine, starting in the centre, and making a circular sweep outward. A skin incision was made in the femoral region. Soft tissue was dissected to expose the femoral neurovascular bundle, consisting of femoral vein, artery, and nerve. Fine tip forceps were placed between the artery, vein and nerve and were slowly opened to separate the vessels, exposing an approximately 1 cm length section of artery/vein. The vena profunda femoris was sutured to avoid retrograde bleeding via this vessel, and the sapheno-femoral junction was cauterized. A few millimetres from venatomy, a vascular clip was inserted in the direction of the catheter (to control the flow) and a suture was applied in the opposite direction (to avoid retrograde bleeding). The same operation was carried out both on the femoral vein and femoral artery. An appropriate syringe filled with 50 U/mL Heparin/physiologic saline solution was fixed at the terminus of the catheters and these were filled with heparinized saline solution. On the upper half of the vessel circumference, at a 45° angle, an incision was made and the catheter (fine bore polythene tubing: ID 0.58 mm, OD 0.98 mm) was inserted through the venotomy and advanced to the vascular clip. The vascular clip was then removed, and the catheter advanced distally towards the level of the inguinal ligament. The catheter was finally secured to the femoral vein/artery proximally and distally with 2 single knots using 4–0 braided silk suture. The catheters were connected to an in-house developed system composed by a peristaltic pump and gamma-radiation coincidence detector (Bioscan, B-FC-4100). The femoral artery catheter, the gamma detector, the peristaltic pump, and the femoral vein catheter were thus connected in series, to enable the extracorporeal circulation of blood (flow 150 μL/s from femoral artery to femoral vein) and continuous measurement of radioactivity in the blood (Figure 1).
The labelled compounds were administrated two different ways: (i) intravenous bolus infusion (ca. 37 MBq in 300 μL of saline solution was injected through the femoral vein catheter) and (ii) oral bolus administration. For oral administration, animals were fasted for 5 h. The radioactive dose (ca. 74 MBq in 300 μL of saline solution) was administered using flexible 20-gauge disposable flexible PTFE feeding needles (Fine Science Tools, F.S.T.) and a small animal Laryngoscope (Penn-Century, Model LS-2) for the correct visualization of the oesophagus. The study was conducted under no carrier added (NCA, dose adjusted to 1 μg/Kg) and carrier added (CA, dose adjusted to 5 mg/Kg) conditions. In all cases, data were imported in real time to an excel sheet using PLX-DAX add-on for Microsoft Excel (measured in volts per second).
Arterial blood samples (1 per animal) were withdrawn (see Figure 1) from the femoral artery catheter and introduced into a capillary (Microhaematocrit capillaries 75 × 1.55, Nahita). Samples were centrifuged at 11,000× g […] for 10 min and the haematocrit was determined. A second blood sample was withdrawn and the amount of radioactivity of a fixed volume (10 µL) was measured in an automatic gamma counter (2470 Wizard, PerkinElmer) to determine Cb (concentration of radioactivity in blood) and convert data imported with PLX-DAX (Volts per seconds) into Bq/s using a previously determined calibration curve. Values were then expressed as percentage of injected dose per gram of blood (% ID/g). […]

[4] = both groups (1 µg/Kg and 5 mg/Kg) pooled together

T2 sequence (P62942 whole entry): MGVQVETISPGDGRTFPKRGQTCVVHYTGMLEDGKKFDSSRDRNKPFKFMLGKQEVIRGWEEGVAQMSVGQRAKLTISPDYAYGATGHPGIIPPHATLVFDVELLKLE

increase of FKBP12/RyR interaction (stabilization) [1]: 89%
IC50 ([2]; 30 nM rapamycin, AHK2 1 μM–10 mM, read-out: IC50, displacement of rapamycin from FKBP12 (inhibition of FKBP12-Rapamycin-FRB interaction)): 2980 µM
AUC area under the curve ([3]; 1 µg/Kg): 6.68 ± 4.35 %IDxs/mL
Cl plasma clearance ([3]; 1 µg/Kg): 4.23 ± 3.58 mL/s
Vz volume of distribution based on the terminal slope ([3]; 1 µg/Kg): 2728.14 ± 1252.35 mL
AUC area under the curve ([3]; 5 mg/Kg): 13.35 ± 5.08 %IDxs/mL
Cl plasma clearance ([3]; 5 mg/Kg): 1.57 ± 0.69 mL/s
Vz volume of distribution based on the terminal slope ([3]; 5 mg/Kg): 1624.28 ± 1299.35 mL
MRT ([3]; 1 ug/kg): 8.51 min
half-life ([3]; 1 ug/kg): 9.16 ± 3.78 min
MRT ([3]; 5 mg/Kg): 9.36 min
half-life ([3]; 5 mg/Kg): 13 ± 11.1 min
MRT [3, 4]: 9 min
half-life [3, 4]: 11.3 ± 8.44 min
AUC area under the curve [3, 4]: 10.49 ± 5.65 %IDxs/mL
Cl plasma clearance [3, 4]: 2.71 ± 2.55 mL/s
Vz volume of distribution based on the terminal slope [3, 4]: 2097.36 ± 1309.61 mL
Structure (SMILES): COc1ccc(SCc2cn(CCN(C)C)nn2)cc1 [AHK2, 1-[2-(N,N-dimethylamino)ethyl]-4-[(4-methoxyphenyl)thiomethyl]-1H-1,2,3-triazole]
induction of FKBP12/FRB dimerization (luminescence) ([2]; rapamycin 30 nM): did not induce FKBP12/FRB dimerization; also recorded: not able to induce FKBP12/FRB dimerization
